Results: BindingDB's records for doi:10.1016/j.bmcl.2006.04.082 (Pharmacopeia Drug Discovery, 2006)

Target: T1, C-X-C chemokine receptor type 2 (Homo sapiens, UniProt P25025)
T1 sequence (P25025 whole entry): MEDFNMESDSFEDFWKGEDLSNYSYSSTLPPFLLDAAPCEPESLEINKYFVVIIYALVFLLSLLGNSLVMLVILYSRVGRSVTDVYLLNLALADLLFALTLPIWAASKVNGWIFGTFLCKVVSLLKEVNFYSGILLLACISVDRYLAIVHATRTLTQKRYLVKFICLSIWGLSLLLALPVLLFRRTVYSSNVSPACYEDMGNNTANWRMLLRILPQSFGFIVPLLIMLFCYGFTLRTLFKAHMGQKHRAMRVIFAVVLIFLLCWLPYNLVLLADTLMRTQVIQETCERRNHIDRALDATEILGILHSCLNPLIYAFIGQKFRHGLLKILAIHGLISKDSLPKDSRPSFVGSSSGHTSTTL
Assay: Displacement of [125I]IL8 from human CXCR2 expressed in CHO cells

CC(C)Nc1c(Nc2cccc(C(=O)N(C)C)c2O)c(=O)c1=O [2-hydroxy-3-(2-(isopropylamino)-3,4-dioxocyclobut-1-enylamino)-N,N-dimethylbenzamide]
IC50: 0.01 µM

CN(C)C(=O)c1cccc(Nc2c(NC3CCCCC3)c(=O)c2=O)c1O [3-(2-(cyclohexylamino)-3,4-dioxocyclobut-1-enylamino)-2-hydroxy-N,N-dimethylbenzamide]
IC50: 0.01 µM
